{"source": "paper PMC8704606", "about": "“The Artemiside-Artemisox-Artemisone-M1 Tetrad: Efficacies against Blood Stage P. falciparum Parasites, DMPK Properties, and the Case for Artemiside” (Pharmaceutics, 2021)", "experiment": "Pharmacokinetics and metabolism after iv and po administration", "format": "in vivo", "details": "for half-life: mean ± SD, read-out: t½ (converted); for MRT last: read-out: MRT0-last; for AUC(0-t): up to 7 h", "protocol": "The plasma concentration-time profiles of the parent compounds and metabolites after administration iv and po to male C57/BL6 mice are presented in Figure 2, Figure 3 and Figure 4. Artemiside was quantifiable up to 24 h in all mice dosed iv and up to 7 h po (lower limit of quantitation LLOQ = 1.6 ng/mL or 0.004 μM) (Figure 2). […] For both artemiside and artemisox, the metabolite artemisone was quantifiable up to 3 h in both the po and iv groups (Figure 2 and Figure 3). Thereby it is confirmed that artemiside is rapidly converted via artemisox into artemisone. Artemisone itself was quantifiable up to three hours post dose (Figure 4). The mean circulating concentrations for the compounds and their metabolites are presented in Table S3a–f in the Supplementary Material 1. The metabolite M1 was also detected upon administration of artemiside, artemisox, and artemisone, but it was not quantified here; chromatograms indicating the presence of M1 are illustrated in Figure S3a–c in the Supplementary Material 1. In addition, the plasma concentration-time curves for artemiside and its metabolites artemisone and M1 following iv and po dosing in the same murine model are presented and discussed in detail elsewhere (cf. Figure 4 in reference).\nAll work was conducted with prior approval of the animal ethics committee of the University of Cape Town in accordance with the South African National Standards for the Care and Use of Animals for Scientific Purposes and guidelines from the South African Department of Health. The requirements and methods for the pharmacokinetics in vivo involving po and iv drug administration, sample extraction, analyses of samples by LC-MS/MS, and data analyses are described elsewhere. For the animal experiments and formulations, the compounds were dissolved in a 10:60:30 mixture of N,N-dimethylacetamide-polypropylene glycol-polyethylene glycol for intravenous dosing (iv) at 5 mg/kg. For the oral dose (po), compounds were individually dosed as a suspension in 0.5% (w/v) hydroxypropylmethylcellulose in water with 0.2% Tween80 at 50 mg/kg to male C57/BL6 mice (n = 3 for each group). For PK sampling, blood samples were collected at predetermined times (0.08, 0.25, 0.5, 1, 3, 5, 7, and 24 h) for both po and iv dosing via tail bleeding into heparinized tubes, centrifuged, and the plasma samples were stored at −80 °C until extraction. For preparation of samples, the frozen plasma samples were thawed and 15 μL was extracted by liquid–liquid extraction using a universal buffer (pH8) containing 10 ng/mL of the internal standard and ethyl acetate, and the extract was vortexed and centrifuged. Calibration standards and quality controls were extracted following the same procedure. Supernatants were dried down, reconstituted, and injected onto the column for LC-MS/MS analysis using an AB SCIEX 5500 QTRAP instrument coupled to an Agilent 1260 HPLC detection system as previously described.", "key": {"[1]": {"details": "male, C57/BL6, mouse, plasma, iv 5 mg/kg, parent drug"}, "[2]": {"details": "male, C57/BL6, mouse, plasma, po 50 mg/kg, parent drug"}}, "note": "Read-outs that look alike come from different tables or passages of the source."}
{"smiles": "C[C@H]1[C@H](N2CCS(=O)(=O)CC2)O[C@@H]2O[C@@]3(C)CC[C@H]4[C@H](C)CC[C@@H]1[C@@]24OO3", "note": "[Artemisone 7, Artemisone]", "values": [{"measurement": "concentration at 0.5 h", "setting": "male, C57/BL6, mouse, plasma, iv, 5 mg/kg, 0.5 h after iv 5 mg/kg artemisone 7, read-out: Mean iv circulating concentration", "result": 1720, "unit": "nM"}, {"measurement": "concentration at 0.5 h", "setting": "male, C57/BL6, mouse, plasma, iv, 5 mg/kg, 0.5 h after iv 5 mg/kg artemisox 6, read-out: Mean iv circulating concentration", "result": 1250, "unit": "nM"}, {"measurement": "concentration at 1 h", "setting": "male, C57/BL6, mouse, plasma, iv, 5 mg/kg, 1 h after iv 5 mg/kg artemiside 5, read-out: Mean iv circulating concentration", "result": 160, "unit": "nM"}, {"measurement": "concentration at 1 h", "setting": "male, C57/BL6, mouse, plasma, iv, 5 mg/kg, 1 h after iv 5 mg/kg artemisone 7, read-out: Mean iv circulating concentration", "result": 831, "unit": "nM"}, {"measurement": "concentration at 1 h", "setting": "male, C57/BL6, mouse, plasma, iv, 5 mg/kg, 1 h after iv 5 mg/kg artemisox 6, read-out: Mean iv circulating concentration", "result": 659, "unit": "nM"}, {"measurement": "concentration at 3 h", "setting": "male, C57/BL6, mouse, plasma, iv, 5 mg/kg, 3 h after iv 5 mg/kg artemiside 5, read-out: Mean iv circulating concentration", "result": 12, "unit": "nM"}, {"measurement": "concentration at 3 h", "setting": "male, C57/BL6, mouse, plasma, iv, 5 mg/kg, 3 h after iv 5 mg/kg artemisone 7, read-out: Mean iv circulating concentration", "result": 28, "unit": "nM"}, {"measurement": "concentration at 3 h", "setting": "male, C57/BL6, mouse, plasma, iv, 5 mg/kg, 3 h after iv 5 mg/kg artemisox 6, read-out: Mean iv circulating concentration", "result": 7, "unit": "nM"}, {"measurement": "concentration at 5 h", "setting": "male, C57/BL6, mouse, plasma, iv, 5 mg/kg, 5 h after iv 5 mg/kg artemiside 5, read-out: Mean iv circulating concentration", "result": 5, "unit": "nM"}, {"measurement": "half-life", "setting": "male, C57/BL6, mouse, plasma, iv, 5 mg/kg, iv 5 mg/kg, parent drug", "result": 24, "unit": "min"}, {"measurement": "concentration at 0.08 h", "setting": "male, C57/BL6, mouse, plasma, po, 50 mg/kg, 0.08 h after po 50 mg/kg artemiside 5, read-out: Mean po circulating concentration", "result": 1000, "unit": "nM"}, {"measurement": "concentration at 0.08 h", "setting": "male, C57/BL6, mouse, plasma, po, 50 mg/kg, 0.08 h after po 50 mg/kg artemisone 7, read-out: Mean po circulating concentration", "result": 1630, "unit": "nM"}, {"measurement": "concentration at 0.08 h", "setting": "male, C57/BL6, mouse, plasma, po, 50 mg/kg, 0.08 h after po 50 mg/kg artemisox 6, read-out: Mean po circulating concentration", "result": 3640, "unit": "nM"}, {"measurement": "concentration at 0.25 h", "setting": "male, C57/BL6, mouse, plasma, po, 50 mg/kg, 0.25 h after po 50 mg/kg artemiside 5, read-out: Mean po circulating concentration", "result": 1390, "unit": "nM"}, {"measurement": "concentration at 0.25 h", "setting": "male, C57/BL6, mouse, plasma, po, 50 mg/kg, 0.25 h after po 50 mg/kg artemisone 7, read-out: Mean po circulating concentration", "result": 1520, "unit": "nM"}, {"measurement": "concentration at 0.25 h", "setting": "male, C57/BL6, mouse, plasma, po, 50 mg/kg, 0.25 h after po 50 mg/kg artemisox 6, read-out: Mean po circulating concentration", "result": 3530, "unit": "nM"}, {"measurement": "concentration at 0.5 h", "setting": "male, C57/BL6, mouse, plasma, po, 50 mg/kg, 0.5 h after po 50 mg/kg artemiside 5, read-out: Mean po circulating concentration", "result": 1790, "unit": "nM"}, {"measurement": "concentration at 0.5 h", "setting": "male, C57/BL6, mouse, plasma, po, 50 mg/kg, 0.5 h after po 50 mg/kg artemisone 7, read-out: Mean po circulating concentration", "result": 1140, "unit": "nM"}, {"measurement": "concentration at 0.5 h", "setting": "male, C57/BL6, mouse, plasma, po, 50 mg/kg, 0.5 h after po 50 mg/kg artemisox 6, read-out: Mean po circulating concentration", "result": 3690, "unit": "nM"}, {"measurement": "concentration at 1 h", "setting": "male, C57/BL6, mouse, plasma, po, 50 mg/kg, 1 h after po 50 mg/kg artemiside 5, read-out: Mean po circulating concentration", "result": 1670, "unit": "nM"}, {"measurement": "concentration at 1 h", "setting": "male, C57/BL6, mouse, plasma, po, 50 mg/kg, 1 h after po 50 mg/kg artemisone 7, read-out: Mean po circulating concentration", "result": 357, "unit": "nM"}, {"measurement": "concentration at 1 h", "setting": "male, C57/BL6, mouse, plasma, po, 50 mg/kg, 1 h after po 50 mg/kg artemisox 6, read-out: Mean po circulating concentration", "result": 3200, "unit": "nM"}, {"measurement": "concentration at 3 h", "setting": "male, C57/BL6, mouse, plasma, po, 50 mg/kg, 3 h after po 50 mg/kg artemiside 5, read-out: Mean po circulating concentration", "result": 179, "unit": "nM"}, {"measurement": "concentration at 3 h", "setting": "male, C57/BL6, mouse, plasma, po, 50 mg/kg, 3 h after po 50 mg/kg artemisone 7, read-out: Mean po circulating concentration", "result": 12, "unit": "nM"}, {"measurement": "concentration at 3 h", "setting": "male, C57/BL6, mouse, plasma, po, 50 mg/kg, 3 h after po 50 mg/kg artemisox 6, read-out: Mean po circulating concentration", "result": 48, "unit": "nM"}, {"measurement": "concentration at 5 h", "setting": "male, C57/BL6, mouse, plasma, po, 50 mg/kg, 5 h after po 50 mg/kg artemisox 6, read-out: Mean po circulating concentration", "result": 7, "unit": "nM"}, {"measurement": "half-life", "setting": "male, C57/BL6, mouse, plasma, po, 50 mg/kg, po 50 mg/kg, parent drug", "result": "23.4 ± 3", "unit": "min"}, {"measurement": "clearance", "setting": "male, C57/BL6, mouse, plasma, iv 5 mg/kg", "result": 88.3, "unit": "mL/min/kg"}, {"measurement": "AUC(0-inf)", "setting": "[1]", "result": "2.5 ± 0.6", "unit": "µM·h"}, {"measurement": "MRT last", "setting": "male, C57/BL6, mouse, plasma, iv 5 mg/kg, parent drug, 0-last up to 7 h", "result": "33.6 ± 4.2", "unit": "min"}, {"measurement": "AUC(0-t)", "setting": "[1]", "result": "2.4 ± 0.6", "unit": "µM·h"}, {"measurement": "Vd", "setting": "male, C57/BL6, mouse, plasma, iv 5 mg/kg, read-out: Vss", "result": "3 ± 0.5", "unit": "L/kg"}, {"measurement": "bioavailability", "setting": "male, C57/BL6, mouse, plasma, po 50 mg/kg vs iv 5 mg/kg, read-out: F (bioavailability)", "result": "4.9 ± 1.7", "unit": "%"}, {"measurement": "Cmax", "setting": "[2]", "result": "1700 ± 400", "unit": "nM"}, {"measurement": "MRT last", "setting": "[2]", "result": "32.4 ± 7.8", "unit": "min"}, {"measurement": "AUC(0-t)", "setting": "[2]", "result": "1.1 ± 0.1", "unit": "µM·h"}, {"measurement": "MAT (mean absorption time = MRTpo–MRTiv)", "setting": "po 50 mg/kg", "result": 0, "unit": "h"}]}
